pIC50: −log10 of the molar value.
Assays:
[1] = molecular target: T1, human IGF1R (hIGF1R) (Homo sapiens, UniProt P08069); assay: TR-FRET kinase assay of purified hIGF1R; type: biochemical; settings: activated hIGF1R 0.5 nM, 10 μM ATP, values given as pIC50 category, read-out: IGF-1R pIC50 (converted)
T1 construct: containing amino acid residues 957-1367 of human IGF1R; made in house; host or cells: Sf9 cells (baculovirus)
Protocol: (§1) Time Resolved Fluorescence Resonance Energy Transfer (TR-FRET) assays were carried out on the exemplified compounds as follows:
(§2) Purity is determined by HPLC. The calculated molecular mass of the peptide is 2216 dalton. Tyrosine phosphorylation by human IGF1R (hIGF1R) or human IR (hIR) occurs as indicated (Y*) in the peptide sequence described. Solid peptide sample is dissolved to approximately 1 mM in DMSO, aliquoted, and stored at −20° C. until use. True peptide concentration is determined by amino acid analysis.
hIGF1R: GST-rTEV-IGF-1R(957-1367) containing amino acid residues 957-1367 of human IGF1R (as annotated by National Center for Biotechnology Information (NCBI) accession number NP_000866) is purified from a baculovirus expression system in Sf9 cells using Glutathione Sepharose 4FF column chromatography followed by Sephadex-200 size exclusion column chromatography. […] Samples, in 25 mM Tris-HCl, 250 mM NaCl, 5% glycerol, 1 mM DTT, pH 7.5, are stored at −80° C. until use.
(§3) hIGF1R: Activation of GST-rTEV-IGF-1R(957-1367) is achieved by a 4 minute incubation of hIGF1R (2.7 μM final) with 2 mM ATP in 50 mM HEPES, 20 mM MgCL2, 0.1 mg/ml BSA, at room temperature. Autophosphorylation is stopped by addition of EDTA (to 100 mM final). Aliquoted samples are flash frozen in liquid nitrogen and stored at −80° C. until use.
(§4) Assays are performed in 384-well (Greiner, Catalog No. 784076) microtiter plates. Reaction buffer (50 mM HEPES buffer, pH 7.5; 10 mM MgCL2; 3 mM DTT; 1 mM CHAPS; 0.1 mg/ml BSA) for peptide phosphorylation (10 μl volume) contained, in final concentrations, 500 nM biotinylated peptide substrate; 10 μM ATP; and purified, activated hIGF1R or hIR (0.5 nM). Compounds, titrated in DMSO, are evaluated at eleven concentrations ranging from 50 μM to 0.2 nM. […] Reactions are incubated for 1 hour at room temperature and are stopped by a 5 μl addition of EDTA (to 33 mM). A further addition of 5 μl detection reagents (for final 7 nM Streptavidin-APC (Perkin Elmer #CR^130-150), 1 nM Europium-labeled anti-phosphotyrosine monoclonal antibody (PerkinElmer #AD0067), added in reaction buffer (without DTT), is required for signal generation. After 30 minutes, signal is read on PerkinElmer Viewlux microplate imager or Wallac Victor fluorometer.
(§5) The data for compound concentration responses were plotted as % Inhibition, calculated with the data reduction formula 100*(1-[(U1-C2)/(C1-C2)]), versus concentration of compound, where • U is the unknown value, • C1 is the average control value obtained for DMSO only, and • C2 is the average control value obtained for reactions stopped with EDTA at • t=0.
(§6) Data were fitted to the curve described by: y=((Vmax*x)/(K+x)) where • Vmax is the upper asymptote and • K is the IC50.

[2] = molecular target: T2, NIH-3T3 cells overexpressing human IGF-1R (Homo sapiens, UniProt P08069); assay: IGF-1R cellular autophosphorylation (DELFIA); type: cell-based
T2 construct: expressed in transfected cells; host or cells: NIH-3T3 (mouse fibroblasts)
Protocol: NIH-3T3 cells overexpressing human IGF-1R or IR were plated in 96-well plates (10,000 cells/well) in culture media containing 10% fetal bovine serum and incubated at 37° C. in a 5% CO2 incubator. Twenty four hours post-plating, cells were treated with different concentrations of test compounds ranging from 30 uM to 1.5 nM. Two hours after compound addition, cells were stimulated with either human IGF-1 (30 ng/ml) or insulin (3 ug/ml) for 15 minutes. Cell lysates are analyzed for phosphorylated receptors using dissociation enhanced lanthanide fluor-immuno assay (DELFIA) with anti-IGF-1R (MAB391, R&D Systems, Minneapolis, Minn.) or anti-IRβ (sc-711, Santa Cruz Biotechnology, Santa Cruz, Calif.) capture antibody and europium-labeled anti-pTyr antibody (Eu-N1 PT66, Perkin Elmer, Waltham, Mass.) for detection. The fluorescence signal for cells treated with compounds was expressed as percent relative to 100% stimulation (IGF-1 or insulin stimulated signal).

[3] = molecular target: ALK (Homo sapiens, UniProt Q9UM73); assay: ALK enzyme assay (HTRF); type: biochemical; settings: 0.25 nM ALK, 15.0 μM ATP, values given as pIC50 category
Protocol: The method measures the ability of the isolated enzyme to catalyse the transfer of the gamma-phosphate from ATP onto the tyrosine residue of a biotinylated synthetic peptide. The extent of tyrosine phosphorylation was measured using an anti-phosphotyrosine antibody, and quantified by homogenous time-resolved fluorescence (HTRF) assay purchased from CisBio (62TK0PEJ).
Reactions were performed in black 384-well polystyrene low volume plates in a final volume of 5 μl.
The reactions were then started by adding the substrate mix. The reactions were allowed to proceed for 120 minutes at 20° C. The reactions were then terminated by the addition of 5 μl HTRF detection mix to each well. The final concentrations of the detection reagents were: 50 mM HEPES (pH7.0); 0.1% BSA; 0.8 M KF; 20 mM EDTA; 1 mM CHAPS; TK-antibody Europium Cryptate; and 41 nM streptavidin-XL665. Assay plates were left unsealed, stacked and incubated at 20° for 60 minutes. Quantification of activity was achieved by counting in an Envision Counter (PerkinElmer).
Compounds under analysis were dissolved in Me2SO to 1.0 mM and serially diluted 1 to 3 with Me2SO through twelve dilutions. 0.05 μl of each concentration was transferred to the corresponding well of an assay plate. This creates a final compound concentration range from 0.00017 to 10 μM.
The data for dose responses were plotted as % Inhibition calculated with the data reduction formula 100*(1-(U1-C2)/(C1-C2)) versus concentration of compound where U is the unknown value, C1 is the average control value obtained for 1% DMSO, and C2 is the average control value obtained for 0.1 M EDTA. Data were fitted with a curve described by:
[formula] where A is the minimum y, B is the maximum y concentration [M], D is the slope factor, and x is the log10 of the compound.

[4] = molecular target: T3, human IR (hIR) (Homo sapiens, UniProt P06213); assay: TR-FRET kinase assay of purified hIR; type: biochemical; settings: activated hIR 0.5 nM, 10 μM ATP, values given as pIC50 category
T3 construct: containing amino acid residues 979-1382 of human IR; made in house; host or cells: Sf9 cells (baculovirus), same process as hIGF1R
Protocol: as §1, §2
hIR: GST-rTEV-IR(979-1382) containing amino acid residues 979-1382 of human IR (as annotated by NCBI accession number NP_000199) is expressed and purified by the same process as hIGF1R. […] Samples, in 25 mM Tris-HCl, 250 mM NaCl, 5% glycerol, 1 mM DTT, pH 7.5, are stored at −80° C. until use.
as §3, with “hIR:” for “hIGF1R:”, “5” for “4”, “hIR” for “hIGF1R”, “100” for “50”, “10” for “20”
as §4, §5, §6

T1 sequence (P08069 957-1367): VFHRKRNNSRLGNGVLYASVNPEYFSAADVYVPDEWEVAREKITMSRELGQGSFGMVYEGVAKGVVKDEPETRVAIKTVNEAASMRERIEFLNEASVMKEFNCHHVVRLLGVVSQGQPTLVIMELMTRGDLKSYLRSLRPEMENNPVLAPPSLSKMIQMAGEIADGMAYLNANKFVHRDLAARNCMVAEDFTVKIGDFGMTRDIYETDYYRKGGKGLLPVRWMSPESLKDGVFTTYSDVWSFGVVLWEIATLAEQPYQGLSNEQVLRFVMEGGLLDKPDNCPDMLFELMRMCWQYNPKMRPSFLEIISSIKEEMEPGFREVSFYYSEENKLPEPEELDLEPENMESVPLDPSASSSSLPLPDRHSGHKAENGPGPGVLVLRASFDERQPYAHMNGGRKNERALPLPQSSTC
Chain of ALK (Q9UM73 19-1620): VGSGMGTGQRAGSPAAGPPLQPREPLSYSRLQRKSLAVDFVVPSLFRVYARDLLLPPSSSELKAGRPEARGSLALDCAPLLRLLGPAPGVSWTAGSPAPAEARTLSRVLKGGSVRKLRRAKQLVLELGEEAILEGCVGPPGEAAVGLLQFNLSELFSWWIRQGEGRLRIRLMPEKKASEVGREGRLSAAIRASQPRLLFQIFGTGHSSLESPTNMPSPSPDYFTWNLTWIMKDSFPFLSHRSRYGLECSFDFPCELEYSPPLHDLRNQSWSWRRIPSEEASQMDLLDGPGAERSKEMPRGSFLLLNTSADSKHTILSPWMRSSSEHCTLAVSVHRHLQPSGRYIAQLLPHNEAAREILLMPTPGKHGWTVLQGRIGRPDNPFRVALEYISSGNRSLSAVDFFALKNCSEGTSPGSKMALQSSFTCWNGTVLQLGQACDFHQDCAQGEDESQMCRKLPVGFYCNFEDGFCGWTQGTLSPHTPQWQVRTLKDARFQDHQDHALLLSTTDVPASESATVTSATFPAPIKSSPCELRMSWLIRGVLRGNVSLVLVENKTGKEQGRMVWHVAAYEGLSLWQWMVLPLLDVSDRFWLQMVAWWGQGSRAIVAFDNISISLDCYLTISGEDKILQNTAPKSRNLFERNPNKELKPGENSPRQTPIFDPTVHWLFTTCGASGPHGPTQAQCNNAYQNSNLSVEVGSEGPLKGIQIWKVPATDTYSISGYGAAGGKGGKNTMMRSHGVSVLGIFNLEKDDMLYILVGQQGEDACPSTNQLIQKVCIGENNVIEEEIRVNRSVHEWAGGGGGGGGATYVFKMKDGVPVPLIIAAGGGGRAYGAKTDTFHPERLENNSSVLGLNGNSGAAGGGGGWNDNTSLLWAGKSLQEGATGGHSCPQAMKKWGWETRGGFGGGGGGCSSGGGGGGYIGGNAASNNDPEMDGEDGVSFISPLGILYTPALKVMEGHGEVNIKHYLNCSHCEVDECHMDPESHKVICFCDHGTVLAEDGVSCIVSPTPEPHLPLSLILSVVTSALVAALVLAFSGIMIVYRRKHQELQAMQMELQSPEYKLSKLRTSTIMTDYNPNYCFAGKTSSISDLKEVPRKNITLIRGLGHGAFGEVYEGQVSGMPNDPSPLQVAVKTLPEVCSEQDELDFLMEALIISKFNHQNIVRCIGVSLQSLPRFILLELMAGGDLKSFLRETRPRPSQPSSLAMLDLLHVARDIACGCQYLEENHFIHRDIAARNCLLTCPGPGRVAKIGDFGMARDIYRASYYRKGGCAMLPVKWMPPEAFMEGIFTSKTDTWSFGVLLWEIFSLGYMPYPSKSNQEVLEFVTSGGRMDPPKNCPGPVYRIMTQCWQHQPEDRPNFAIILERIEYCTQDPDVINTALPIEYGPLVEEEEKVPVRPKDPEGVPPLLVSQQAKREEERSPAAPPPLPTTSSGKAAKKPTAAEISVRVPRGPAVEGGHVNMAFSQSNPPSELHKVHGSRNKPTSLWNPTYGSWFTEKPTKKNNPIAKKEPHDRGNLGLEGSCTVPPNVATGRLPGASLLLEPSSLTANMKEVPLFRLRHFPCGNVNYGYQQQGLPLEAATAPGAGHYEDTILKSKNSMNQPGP
T2 sequence (P08069 31-1367): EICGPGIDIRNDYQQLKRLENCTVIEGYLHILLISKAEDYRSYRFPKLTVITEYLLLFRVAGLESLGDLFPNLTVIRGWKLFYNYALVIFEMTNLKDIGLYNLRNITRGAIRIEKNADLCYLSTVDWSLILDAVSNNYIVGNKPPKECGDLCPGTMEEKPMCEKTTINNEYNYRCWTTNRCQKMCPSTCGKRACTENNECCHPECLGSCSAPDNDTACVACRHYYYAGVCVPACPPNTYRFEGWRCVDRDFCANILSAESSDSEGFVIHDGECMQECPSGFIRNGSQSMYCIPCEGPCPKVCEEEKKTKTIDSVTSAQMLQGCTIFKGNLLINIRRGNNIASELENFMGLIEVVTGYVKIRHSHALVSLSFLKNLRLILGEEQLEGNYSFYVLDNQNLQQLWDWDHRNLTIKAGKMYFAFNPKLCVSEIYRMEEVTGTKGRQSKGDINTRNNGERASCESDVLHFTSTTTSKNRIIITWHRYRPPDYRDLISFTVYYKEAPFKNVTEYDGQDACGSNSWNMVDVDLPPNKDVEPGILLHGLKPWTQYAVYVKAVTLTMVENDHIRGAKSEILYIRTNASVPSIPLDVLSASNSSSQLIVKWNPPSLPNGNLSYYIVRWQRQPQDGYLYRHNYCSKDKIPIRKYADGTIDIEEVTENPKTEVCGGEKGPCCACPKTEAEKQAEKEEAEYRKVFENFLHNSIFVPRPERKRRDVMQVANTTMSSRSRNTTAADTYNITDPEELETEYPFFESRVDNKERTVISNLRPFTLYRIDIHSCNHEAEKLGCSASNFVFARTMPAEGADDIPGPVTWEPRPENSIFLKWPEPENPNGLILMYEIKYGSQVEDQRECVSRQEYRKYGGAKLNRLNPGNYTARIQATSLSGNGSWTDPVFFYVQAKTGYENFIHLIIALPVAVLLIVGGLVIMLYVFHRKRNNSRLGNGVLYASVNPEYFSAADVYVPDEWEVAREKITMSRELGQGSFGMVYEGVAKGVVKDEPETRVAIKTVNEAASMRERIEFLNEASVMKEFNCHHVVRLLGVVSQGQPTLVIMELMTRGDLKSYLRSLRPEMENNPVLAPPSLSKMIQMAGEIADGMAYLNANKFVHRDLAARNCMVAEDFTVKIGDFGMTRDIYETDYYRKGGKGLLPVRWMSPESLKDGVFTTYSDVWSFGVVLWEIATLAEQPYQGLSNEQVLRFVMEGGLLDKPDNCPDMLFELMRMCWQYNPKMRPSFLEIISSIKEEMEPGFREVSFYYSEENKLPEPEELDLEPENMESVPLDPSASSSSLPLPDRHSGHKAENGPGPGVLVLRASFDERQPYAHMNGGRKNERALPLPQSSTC
T3 sequence (P06213 979-1382): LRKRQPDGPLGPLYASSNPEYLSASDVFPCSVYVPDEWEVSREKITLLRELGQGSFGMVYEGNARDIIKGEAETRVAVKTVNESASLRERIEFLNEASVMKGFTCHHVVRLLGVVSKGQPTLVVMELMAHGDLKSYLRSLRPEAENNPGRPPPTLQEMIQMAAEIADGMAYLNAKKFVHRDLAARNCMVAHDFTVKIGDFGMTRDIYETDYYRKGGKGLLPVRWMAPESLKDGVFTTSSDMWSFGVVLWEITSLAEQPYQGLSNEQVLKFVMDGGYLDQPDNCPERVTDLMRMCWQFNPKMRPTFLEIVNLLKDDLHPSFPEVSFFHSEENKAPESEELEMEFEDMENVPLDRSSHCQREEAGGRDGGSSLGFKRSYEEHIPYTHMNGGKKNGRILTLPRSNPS

Row | Compound | IC50 [1] [nM] | pIC50 [2] | pIC50 [3] | pIC50 [4]
1 | CCCN1CCC=C(c2ccc(Nc3nc(Nc4cccc(F)c4C(N)=O)c4cc[nH]c4n3)c(C)c2)C1 [Example 40, 2-fluoro-6-[(2-{[2-methyl-4-(1-propyl-1,2,5,6-tetrahydro-3-pyridinyl)phenyl]amino}-1H-pyrrolo[2,3-d]pyrimidin-4-yl)amino]benzamide] | 1.26 to 3.98 | 6.30 to 7.00 | 8.40 to 8.90 | 
2 | CNC(=O)c1c(F)cccc1Nc1nc(Nc2cc3c(cc2OC)CCN3C(=O)[C@H]2CCCN2C)nc2[nH]ccc12 [Example 129, 2-fluoro-N-methyl-6-[(2-{[5-(methyloxy)-1-(1-methyl-D-prolyl)-2,3-dihydro-1H-indol-6-yl]amino}-1H-pyrrolo[2,3-d]pyrimidin-4-yl)amino]benzamide] | 5.01 to 200 |  | 6.70 to 8.30 | 6.80 to 8.30
3 | Cc1ccc(Nc2nc(Nc3cc(NC(=O)CN(C)C)ccc3C)nc3[nH]ccc23)c(C(N)=O)c1 [Example 34, 2-{[2-({5-[(N,N-dimethylglycyl)amino]-2-methylphenyl}amino)-1H-pyrrolo[2,3-d]pyrimidin-4-yl]amino}-5-methylbenzamide] | 5.01 to 200 |  | 6.70 to 8.30 | 8.40 to 8.90
4 | CCCN1CCC=C(c2ccc(Nc3nc(Nc4cc(C)ccc4C(N)=O)c4cc[nH]c4n3)c(C)c2)C1 [Example 35, 4-methyl-2-[(2-{[2-methyl-4-(1-propyl-1,2,5,6-tetrahydro-3-pyridinyl)phenyl]amino}-1H-pyrrolo[2,3-d]pyrimidin-4-yl)amino]benzamide] | 5.01 to 200 |  | 6.70 to 8.30 | 6.80 to 8.30
5 | COc1cc(C2CCCN(C)C2)ccc1Nc1nc(Nc2ccc(F)cc2C(N)=O)c2cc[nH]c2n1 (stereo not drawn) [Example 56, 5-fluoro-2-[(2-{[2-(methyloxy)-4-(1-methyl-3-piperidinyl)phenyl]amino}-1H-pyrrolo[2,3-d]pyrimidin-4-yl)amino]benzamide] |  | > 7.00 | 9.00 to 9.60 | 9.00 to 9.60
6 | COc1cc(CS(C)(=O)=O)ccc1Nc1nc(Nc2ccccc2C(N)=O)c2cc[nH]c2n1 [Example 19, 2-{[2-({2-(methyloxy)-4-[(methylsulfonyl)methyl]phenyl}amino)-1H-pyrrolo[2,3-d]pyrimidin-4-yl]amino}benzamide] | 1.26 to 3.98 |  | 8.40 to 8.90 | 8.40 to 8.90
7 | Cc1ccc(NC(=O)CN(C)C)cc1Nc1nc(Nc2ccc(Cl)cc2C(N)=O)c2cc[nH]c2n1 [Example 109, 5-chloro-2-{[2-({5-[(N,N-dimethylglycyl)amino]-2-methylphenyl}amino)-1H-pyrrolo[2,3-d]pyrimidin-4-yl]amino}benzamide] | 1.26 to 3.98 |  | 6.70 to 8.30 | 9.00 to 9.60
8 | CCOc1cc2c(cc1Nc1nc(Nc3cccc(F)c3C(=O)NC)c3cc[nH]c3n1)N(C(=O)CN(C)C)CCC2 [Example 133, 2-[(2-{[1-(N,N-dimethylglycyl)-6-(ethyloxy)-1,2,3,4-tetrahydro-7-quinolinyl]amino}-1H-pyrrolo[2,3-d]pyrimidin-4-yl)amino]-6-fluoro-N-methylbenzamide] | 1.26 to 3.98 |  | 8.40 to 8.90 | 8.40 to 8.90
9 | CCCN1CCC=C(c2ccc(Nc3nc(Nc4ccccc4C(N)=O)c4cc[nH]c4n3)c(C)c2)C1 [Example 1, 2-[(2-{[2-methyl-4-(1-propyl-1,2,5,6-tetrahydro-3-pyridinyl)phenyl]amino}-1H-pyrrolo[2,3-d]pyrimidin-4-yl)amino]benzamide] | 5.01 to 200 |  | 9.00 to 9.60 | 6.80 to 8.30
10 | CCCN1CCN(c2ccc(Nc3nc(Nc4ccccc4C(N)=O)c4cc[nH]c4n3)c(OC)c2)CC1 [Example 8, 2-[(2-{[2-(methyloxy)-4-(4-propyl-1-piperazinyl)phenyl]amino}-1H-pyrrolo[2,3-d]pyrimidin-4-yl)amino]benzamide] | 1.26 to 3.98 | > 7.00 |  | 9.00 to 9.60
11 | CNC(=O)c1c(F)cccc1Nc1nc(Nc2ccc3c(c2)N(C(=O)CN(C)C)CC3)nc2[nH]ccc12 [Example 130, 2-[(2-{[1-(N,N-dimethylglycyl)-2,3-dihydro-1H-indol-6-yl]amino}-1H-pyrrolo[2,3-d]pyrimidin-4-yl)amino]-6-fluoro-N-methylbenzamide] | 5.01 to 200 |  | 6.70 to 8.30 | 6.80 to 8.30
12 | COc1ccc(CS(C)(=O)=O)cc1Nc1nc(Nc2ccccc2C(N)=O)c2cc[nH]c2n1 [Example 20, 2-{[2-({2-(methyloxy)-5-[(methylsulfonyl)methyl]phenyl}amino)-1H-pyrrolo[2,3-d]pyrimidin-4-yl]amino}benzamide] | 5.01 to 200 |  | 6.70 to 8.30 | 6.80 to 8.30
13 | Cc1ccc(NC(=O)CN(C)C)cc1Nc1nc(Nc2ccccc2C(N)=O)c2cc[nH]c2n1 [Example 13, 2-{[2-({5-[(N,N-dimethylglycyl)amino]-2-methylphenyl}amino)-1H-pyrrolo[2,3-d]pyrimidin-4-yl]amino}benzamide] | 1.26 to 3.98 |  | 8.40 to 8.90 | 9.00 to 9.60

— patent US7981903B2, “2-[2-{phenylamino}-1H-pyrrolo[2,3-D]pyrimidin-4-yl)amino] benzamide derivatives as IGF-1R inhibitors for the treatment of cancer” (GlaxoSmithKline LLC, priority 2007, dated 2011)
